Like-named read-outs stand apart in the source and are kept apart here.

This is an account of results in patent US20090081285A1, “USE OF RADICAL-CAPTURING SUBSTANCES IN A TOPICAL PREPARATION FOR ANTIPYRETIC TREATMENT” (priority 2005, published 2009).

For assay [1] the following is noted: standard antioxidants, RPF stated as well-known; cited from earlier work.
Assay [2] is described as follows: Radical protection factor (RPF) by electron spin resonance (ESR). The assay is classed as physicochemical. Particulars: in vitro. An excerpt: wherein RF=(S1−S2)/S1; RC=concentration of test substance (radicals/ml); PI=concentration of active substance preparation (mg/ml); S2=signal amplitude of a solution of antioxidant. The radical protection factor is preferably 800×10^14 radicals per mg of preparation, more preferably 30,000×10^14 radicals per mg of preparation.
The radical protection factor (RPF) indicates the activity in binding free radicals by an antioxidant or radical scavenger compared to a test substance.
As set forth above, the radical protection factor (RPF) determines the activity of a substance for binding free radicals as compared with a test substance. The test substance consists of a highly reactive, semi-stable radical which reacts with all known antioxidants. Such radicals include nitroxides such as Proxo (2,2,5,5-tetramethyl-1-dihydropyrrolinoxy nitroxide), Tempol (2,2,6,6-tetramethyl-1-piperidinoxy-4-ol nitroxide), DTBN (di-tert-butyl-nitroxide) or preferably DPPH (1,1-diphenyl-2-picryl-hydrazyl).
The RPF is measured in such a way that the signal amplitude of the test radical is measured by electron spin resonance (ESR/EPR) before and after mixing with an antioxidant/radical scavenger and calculating the RPF therefrom. For a series of standard antioxidants the RPF is well-known.
Ind. […] Starting from the known concentration of test substance (here: DPPH) or the number of its free radicals (radicals per ml), a signal amplitude S1 is measured using an ESR spectrometer. Both test radical and antioxidant are dissolved in a water/alcohol solution (e.g. 0.1 M). Thereafter, the signal amplitude S2 of the antioxidant is measured. The normalized difference between the two signal amplitudes is the reduction factor RF.
The result of the radical reduction of the test substance RC×RF is normalized relative to the quantity of product input PI (mg/ml). RC is the amount of the test substance, i.e., the known number of radicals in the test substance. The radical protection factor is calculated by means of the following equation:
RPF=N×10^14[radicals per mg],
wherein N is a positive real number and RPF for simplification may be reduced to the numerical value of N. This reduction will be used in the examples of the present invention.
The radical protection factor can be determined using an ESR spectrometer (GALENUS GmbH, Berlin, Germany) and is a magnitude for characterizing products with respect to their capability of binding free radicals. The method is an in vitro method in which no individual properties of the user would influence the antioxidants.

Where [3] appears, read: radical scavenger raw materials.

With `Cc1c(C)c2c(c(C)c1O)CCC(C)(CCCC(C)CCCC(C)CCCC(C)C)O2` (racemic) [DL-α-tocopherol], the “radical protection factor (RPF)” value in assay [1] is reported as 41,200 ×10^14 radicals/mg.
With `CC(=O)OC/C=C(C)/C=C/C=C(C)/C=C/C1=C(C)CCCC1(C)C` [all-trans-retinol acetate], the “radical protection factor (RPF)” value in assay [1] was 196 ×10^14 radicals/mg.
As for `CC1=C(/C=C/C(C)=C/C=C/C(C)=C/CO)C(C)(C)CCC1` [all-trans-retinol], the “radical protection factor (RPF)” value in assay [1] is listed as 827 ×10^14 radicals/mg.
Regarding `O=C(/C=C/c1ccc(O)c(O)c1)O[C@H](Cc1ccc(O)c(O)c1)C(=O)O` [rosmarinic acid], in assay [2] (setting [3]), the “radical protection factor (RPF)” value is on record as 36,000-68,000 ×10^14 radicals/mg.
Still for that read-out and setting: the same measure for `O=C1O[C@H]([C@@H](O)CO)C([O-])=C1OP(=O)([O-])[O-].[Na+].[Na+].[Na+]` [sodium ascorbyl phosphate]: 35,000 ×10^14 radicals/mg.
In the case of `O=C(OC[C@H]1O[C@@H](OC(=O)c2cc(O)c(O)c(OC(=O)c3cc(O)c(O)c(O)c3)c2)[C@H](OC(=O)c2cc(O)c(O)c(OC(=O)c3cc(O)c(O)c(O)c3)c2)[C@@H](OC(=O)c2cc(O)c(O)c(OC(=O)c3cc(O)c(O)c(O)c3)c2)[C@@H]1OC(=O)c1cc(O)c(O)c(OC(=O)c2cc(O)c(O)c(O)c2)c1)c1cc(O)c(O)c(OC(=O)c2cc(O)c(O)c(O)c2)c1` [tannic acid], in assay [2] (setting [3]), the “radical protection factor (RPF)” value is 310,000 ×10^14 radicals/mg.
Consider `CC(=O)Oc1c(C)c(C)c2c(c1C)CCC(C)(CCC[C@H](C)CCC[C@H](C)CCCC(C)C)O2` (stereo partly drawn) [α-tocopheryl acetate], for which the “radical protection factor (RPF)” value in assay [1] is listed as “about 48 ×10^14 radicals/mg”.
As to cyclodextrins, the “radical protection factor (RPF)” value in assay [2] (printed without unit (b55-56: RPF=N×10^14 radicals per mg, reduced to N)) turned out to be 0.
